According to patent US5747467A, “Erythromycins” (Roussel Uclaf, priority 1995, dated 1998):
Converted amounts (≈) assume the structure as drawn.

Assays:
Type in all cases: cell-based
[1] = test system: Haemophilus Influenzae 351HT3, 351CB12, 351CA1 and 351GR6; assay: activity on gram (-) bacterial strains
Procedure: (§1) Method of dilutions in liquid medium A series of tubes was prepared into which an equal quantity of sterile nutritive medium was distributed. Increasing quantities of the product to be studied were distributed into each tube and then each tube was seeded with a bacterial strain. After incubation for twenty-four hours in an oven at 37° C., the growth inhibition was evaluated by trans-illumination which allowed the minimal inhibitory concentrations (M.I.C.), expressed in micrograms/cm^3, to be determined.

[2] = test system: Staphylococcus aureus 011G025I; assay: M.I.C., dilutions in liquid medium; details: 24 hours at 37° C., read-out: minimal inhibitory concentration (M.I.C.)
Procedure: as §1

[3] = test system: Staphylococcus epidermidis 012GO11I; assay: M.I.C., dilutions in liquid medium; details: 24 hours at 37° C., read-out: minimal inhibitory concentration (M.I.C.)
Procedure: as §1

[4] = test system: Streptococcus faecium group D 02D3HT1; assay: M.I.C., dilutions in liquid medium; details: Enterococcus faecium, GROUPD02D3HT1, 24 hours at 37° C., read-out: minimal inhibitory concentration (M.I.C.)
Procedure: as §1

[5] = test system: Streptococcus agalactiae group B 02B1HT1; assay: M.I.C., dilutions in liquid medium; details: GROUPB02B1HT1, 24 hours at 37° C., read-out: minimal inhibitory concentration (M.I.C.)
Procedure: as §1

[6] = test system: Staphylococcus aureus 011UC4; assay: M.I.C., dilutions in liquid medium; details: 24 hours at 37° C., read-out: minimal inhibitory concentration (M.I.C.)
Procedure: as §1

[7] = test system: Streptococcus mitis 02mitGR16I; assay: M.I.C., dilutions in liquid medium; details: 24 hours at 37° C., read-out: minimal inhibitory concentration (M.I.C.)
Procedure: as §1

[8] = test system: Streptococcus sp group G 02G0GR5; assay: M.I.C., dilutions in liquid medium; details: GROUPG02G0GR5, 24 hours at 37° C., read-out: minimal inhibitory concentration (M.I.C.)
Procedure: as §1

[9] = test system: Streptococcus pyogenes group A 02A1UC1; assay: M.I.C., dilutions in liquid medium; details: GROUPA02A1UC1, 24 hours at 37° C., read-out: minimal inhibitory concentration (M.I.C.)
Procedure: as §1

[10] = test system: Streptococcus mitis 02mitCB1; assay: M.I.C., dilutions in liquid medium; details: 24 hours at 37° C., read-out: minimal inhibitory concentration (M.I.C.)
Procedure: as §1

[11] = test system: Streptococcus faecalis group D 02D2UC1; assay: M.I.C., dilutions in liquid medium; details: Enterococcus faecalis, GROUPD02D2UC1, 24 hours at 37° C., read-out: minimal inhibitory concentration (M.I.C.)
Procedure: as §1

[12] = test system: Streptococcus agalactiae group B 02B1SJ1; assay: M.I.C., dilutions in liquid medium; details: GROUPB02B1SJ1, 24 hours at 37° C., read-out: minimal inhibitory concentration (M.I.C.)
Procedure: as §1

[13] = test system: Streptococcus pneumoniae 030SJ5; assay: M.I.C., dilutions in liquid medium; details: 24 hours at 37° C., read-out: minimal inhibitory concentration (M.I.C.)
Procedure: as §1

- MIC [2]: 0.08 µg/mL (≈ 0.0995 µM)
- MIC [3]: 0.15 µg/mL (≈ 0.187 µM)
- MIC [4]: ≤ 0.02 µg/mL
- MIC [5]: ≤ 0.02 µg/mL
- MIC [6]: 0.04 µg/mL (≈ 0.0498 µM)
- MIC [7]: ≤ 0.02 µg/mL
- MIC [8]: 0.02 µg/mL (≈ 0.0249 µM)
- MIC [9]: ≤ 0.02 µg/mL
- MIC [10]: ≤ 0.02 µg/mL
- MIC [11]: 0.02 µg/mL (≈ 0.0249 µM)
- MIC [12]: 0.08 µg/mL (≈ 0.0995 µM)
- MIC [13]: 0.02 µg/mL (≈ 0.0249 µM)
Compound: CC[C@H]1OC(=O)C(C)(F)C(=O)[C@H](C)[C@@H](O[C@@H]2O[C@H](C)C[C@H](N(C)C)[C@H]2O)[C@](C)(OC)C[C@@H](C)C(=O)[C@H](C)[C@H]2N(CCCCn3cnc4cccnc43)C(=O)O[C@]12C (single isomer, unassigned) [Example 1, 11,12-dideoxy-3-de[(2,6-dideoxy-3-C-methyl-3-0-methyl-α-L-ribohexopyranosyl)-oxy]-2-fluoro-6-0-methyl-3-oxo-12,11-(oxycarbonyl( (4-(3H-imidazo(4,5-b)pyridin-3-yl)-butyl)-imino))-erythromycin]
- activity on gram (-) bacterial strains [1]: very useful activity
